Reference: patent US20090318446A1, “4-(1H-Indol-3-yl)-Pyrimidin-2-Ylamine Derivatives and Their Use in Therapy” (Cyclacel Limited, priority 2005, published 2009)

What was measured:
Flt-3 = molecular target: T1, Flt-3 (Homo sapiens, UniProt P36888); test: Flt3 kinase assay; format: biochemical; conditions: Table 3; read-out: Kinase inhibition Flt3
T1 construct: purchased Upstate, Dundee, UK
T1 sequence (P36888 564-993 limits assumed): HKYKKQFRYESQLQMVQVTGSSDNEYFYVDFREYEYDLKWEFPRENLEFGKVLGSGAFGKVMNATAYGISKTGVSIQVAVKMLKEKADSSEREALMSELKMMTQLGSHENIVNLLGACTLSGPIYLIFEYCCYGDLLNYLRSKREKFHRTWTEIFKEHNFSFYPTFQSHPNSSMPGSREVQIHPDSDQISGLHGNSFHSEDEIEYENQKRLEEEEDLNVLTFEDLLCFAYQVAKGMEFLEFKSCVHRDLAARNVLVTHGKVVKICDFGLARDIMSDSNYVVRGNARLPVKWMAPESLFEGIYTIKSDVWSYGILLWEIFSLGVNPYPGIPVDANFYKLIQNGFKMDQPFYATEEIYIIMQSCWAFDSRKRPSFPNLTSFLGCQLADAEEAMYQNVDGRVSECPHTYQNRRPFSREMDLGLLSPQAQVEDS
Description: This was achieved by measurement of incorporation of radioactive phosphate from ATP into myelin basic protein (MBP) substrate, upon phosphorylation by commercially obtained Flt-3 Upstate, Dundee, UK). Assays were performed using 96-well plates and appropriate assay buffers (20 mM Tris, 25 mM β-glycerophosphate, 5 mM EGTA, 1 mM DTT, 1 mM sodium vanadate, pH 7.5), into which were added 5 ng of active enzyme with 0.4 mg/ml substrate (MBP). The reactions were initiated by addition of MgATP mix (15 mM MgCl2+100 μM ATP with 15-25 kBq per well of [γ-^32P]-ATP) and mixtures incubated for 30 min at 30° C. Reactions were stopped by addition of an equal volume of 75 mM aq orthophosphoric acid, followed by filtration through p81 filterplates (Whatman Polyfiltronics, Kent, UK). After washing 4 times with 75 mM aq orthophosphoric acid, plates were dried, scintillant added and incorporated radioactivity measured in a scintillation counter (TopCount, Packard Instruments, Pangbourne, Berks, UK). Compounds for kinase assay were made up as 10 mM stocks in DMSO and diluted into 10% DMSO in assay buffer. Data was analysed using curve-fitting software (XLfit version 4.0.2, IDBS, Guildford, Surrey, UK) to determine IC50 values (concentration of test compound which inhibits kinase activity by 50%).

A2780 = test: MTT cytotoxicity assay, A2780; format: cell-based; conditions: Homo sapiens, after incubation
Description: (§1) The compounds of the invention were subjected to a standard cellular proliferation assay using human tumour cell lines obtained from the ATCC (American Type Culture Collection, 10801 University Boulevard, Manessas, Va. 20110-2209, USA). […] C.; Thomas, D. G.; Darling, J. L. Anti Cancer Drugs 1996, 7, 331-8; Loveland, B. E.; Johns, T. G.; Mackay, 1. R.; Vaillant, F.; Wang, Z. X.; Hertzog, P. J. Biochemistry International 1992, 27, 501-10). In short: cells were seeded into 96-well plates according to doubling time and incubated overnight at 37° C. […] MTT was made up as a stock of 5 mg/mL in cell media and filter-sterilised. Media was removed from cells followed by a wash with 200 μL PBS. MTT solution was then added at 20 μL per well and incubated in the dark at 37° C. for 4 h MTT solution was removed and cells again washed with 200 μL PBS. MTT dye was solubilised with 200 μL per well of DMSO with agitation. Absorbance was read at 540 nm and data analysed using curve-fitting software (GraphPad Prism version 3.00 for Windows, GrapbPad Software, San Diego Calif. USA) to determine IC50 values (concentration of test compound which inhibits cell growth by 50%).

CDK7/cyclin H = CDK7/cyclin H (Homo sapiens, UniProt P50613); test: CDK 7 assay; format: biochemical; conditions: Table 3; read-out: Kinase inhibition CDK7H
CDK7/cyclin H, sequence (P50613 whole entry): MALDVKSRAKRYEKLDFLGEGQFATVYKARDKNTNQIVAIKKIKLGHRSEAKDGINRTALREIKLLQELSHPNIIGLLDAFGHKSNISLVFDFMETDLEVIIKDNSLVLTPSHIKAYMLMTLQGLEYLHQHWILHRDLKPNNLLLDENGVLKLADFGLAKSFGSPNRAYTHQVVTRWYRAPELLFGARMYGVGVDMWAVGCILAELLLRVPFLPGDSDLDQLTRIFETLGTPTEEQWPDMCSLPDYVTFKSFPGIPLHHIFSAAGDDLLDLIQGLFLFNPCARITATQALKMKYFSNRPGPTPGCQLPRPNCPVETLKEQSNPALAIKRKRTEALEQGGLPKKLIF
CDK7/cyclin H, sequence (P51946 whole entry partner): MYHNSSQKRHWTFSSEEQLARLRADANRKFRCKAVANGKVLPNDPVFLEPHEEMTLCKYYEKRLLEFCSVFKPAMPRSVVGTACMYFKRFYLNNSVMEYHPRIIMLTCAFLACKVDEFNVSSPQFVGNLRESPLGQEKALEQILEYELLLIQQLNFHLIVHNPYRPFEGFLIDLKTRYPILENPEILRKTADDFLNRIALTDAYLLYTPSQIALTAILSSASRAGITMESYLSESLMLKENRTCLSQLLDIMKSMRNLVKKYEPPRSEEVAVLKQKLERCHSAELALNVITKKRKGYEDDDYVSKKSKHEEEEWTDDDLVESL
Description: CTD peptide substrate (biotinyl-Ahx-(Tyr-Ser-Pro-Thr-Ser-Pro-Ser)4-NH2; 1-2 mg/mL) and recombinant human CDK7/cyclin H, CDK9/cyclin TI, or CDK9/cyclin K (0.5-2 μg) were incubated for 45 min at 30° C. in the presence of varying amounts of test compound in 20 mM MOPS pH 7.2, 25 mM β-glycerophosphate, 5 mM EGTA, 1 mM DTT, 1 mM sodium vanadate, 15 mM MgCl2, and 100 μM ATP (containing a trace amount of ^32PγATP) in a total volume of 25 μL in a 96-well microtiter plate. The reaction was stopped by placing the plate on ice for 2 min. Avidin (50 μg) was added to each well, and the plate was incubated at room temp for 30 min. The samples were transferred to a 96-well P81 filter plate, and washed (4×200 μL per well) with 75 mM phosphoric acid. Microscint 40 scintillation liquid (50 μL) was added to each well, and the amount of ^32P incorporation for each sample was measured using a Packard Topcount microplate scintillation counter.

aurora-B = molecular target: T2, aurora-B (Homo sapiens, UniProt Q96GD4); test: Aurora-B (human) kinase assay; format: biochemical; conditions: Table 3; read-out: Kinase inhibition Aurora B
T2 construct: purchased Upstate, Dundee, UK
T2 sequence (Q96GD4 whole entry): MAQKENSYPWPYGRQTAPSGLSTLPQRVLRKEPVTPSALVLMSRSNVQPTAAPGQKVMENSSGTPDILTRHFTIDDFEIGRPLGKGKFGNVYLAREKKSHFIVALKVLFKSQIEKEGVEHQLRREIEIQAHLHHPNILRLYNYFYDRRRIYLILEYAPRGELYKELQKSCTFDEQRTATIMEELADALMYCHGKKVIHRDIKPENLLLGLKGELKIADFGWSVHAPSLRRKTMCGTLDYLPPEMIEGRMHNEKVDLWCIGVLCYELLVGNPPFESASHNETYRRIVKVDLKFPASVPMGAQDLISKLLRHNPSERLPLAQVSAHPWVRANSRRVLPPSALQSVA
Description: This was achieved by measurement of incorporation of radioactive phosphate from ATP into Kemptide substrate (LRRASLG), upon phosphorylation by commercially obtained aurora-B (human, Upstate, Dundee, UK). Assays were performed using 96-well plates and appropriate assay buffers (20 mM Tris, 25 mM β-glycerophosphate, 5 mM EGTA, 1 mM DTT, 1 mM sodium vanadate, pH 7.5), into which were added 75 ng of pre-activated enzyme with 500 μM substrate (Kemptide). The reactions were initiated by addition of MgATP mix (15 mM MgCl2+100 μM ATP with 15-25 kBq per well of [γ-^32P]-ATP) and mixtures incubated for 60 min at 30° C. Reactions were stopped by addition of an equal volume of 75 mM aq orthophosphoric acid, followed by filtration through p81 filterplates (Whatman Polyfiltronics, Kent, UK). After washing 4 times with 75 mM aq orthophosphoric acid, plates were dried, scintillant added and incorporated radioactivity measured in a scintillation counter (TopCount, Packard Instruments, Pangbourne, Berks, UK). Compounds for kinase assay were made up as 10 mM stocks in DMSO and diluted into 10% DMSO in assay buffer. Data was analysed using curve-fitting software (XLfit version 4.0.2, IDBS, Guildford, Surrey, UK) to determine IC50 values (concentration of test compound which inhibits kinase activity by 50%).
Aurora-B (human, Upstate, Dundee, UK) was pre-activated immediately prior to kinase assay in appropriate buffers (20 mM Tris, 25 mM β-glycerophosphate, 5 mM EGTA, 1 mM DTT, 1 mM sodium vanadate, pH 7.5) by incubating 15 μg of enzyme with 4 μg INCENP (Upstate, Dundee, UK) in the presence of MgATP mix (15 mM MgCl2+100 μM ATP) for 15 min at 30° C.

Mia-PaCa-2 = test: MTT cytotoxicity assay, Mia-PaCa-2; format: cell-based; conditions: Homo sapiens, after incubation
Description: as §1

CDK2/cyclin E = CDK2/cyclin E (Homo sapiens, UniProt P24941); test: Kinase assay CDK2/cyclin E; format: biochemical; conditions: Table 3; read-out: Kinase inhibition CDK2E
Description: The compounds from the examples above were investigated for their ability to inhibit the enzymatic activity of various protein kinases. This was achieved by measurement of incorporation of radioactive phosphate from ATP into appropriate polypeptide substrates. Recombinant protein kinases and kinase complexes were produced or obtained commercially. Assays were performed using 96-well plates and appropriate assay buffers (typically 25 mM β-glycerophosphate, 20 mM MOPS, 5 mM EGTA, 1 mM DTT, 1 mM […], pH 7.4), into which were added 2-4 μg of active enzyme with appropriate substrates. The reactions were initiated by addition of Mg/ATP mix (15 mM MgCl2+100 μM ATP with 30-50 kBq per well of [γ-^32P]-ATP) and mixtures incubated as required at 30° C. Reactions were stopped on ice, followed by filtration through p81 filterplates or GF/C filterplates (Whatman Polyfiltronics, Kent, UK). After washing 3 times with 75 mM aq orthophosphoric acid, plates were dried, scintillant added and incorporated radioactivity measured in a scintillation counter (TopCount, Packard Instruments, Pangbourne, Berks, UK). Compounds for kinase assay were made up as 10 mM stocks in DMSO and diluted into 10% DMSO in assay buffer. Data was analysed using curve-fitting software (GraphPad Prism version 3.00 for Windows, GraphPad Software, San Diego Calif. USA) to determine IC50 values (concentration of test compound which inhibits kinase activity by 50%).

EGF-R = EGF-R (Homo sapiens, UniProt P00533); conditions: reported in reference [74]; cited from earlier work
EGF-R, sequence (P00533 25-1210, species assumed): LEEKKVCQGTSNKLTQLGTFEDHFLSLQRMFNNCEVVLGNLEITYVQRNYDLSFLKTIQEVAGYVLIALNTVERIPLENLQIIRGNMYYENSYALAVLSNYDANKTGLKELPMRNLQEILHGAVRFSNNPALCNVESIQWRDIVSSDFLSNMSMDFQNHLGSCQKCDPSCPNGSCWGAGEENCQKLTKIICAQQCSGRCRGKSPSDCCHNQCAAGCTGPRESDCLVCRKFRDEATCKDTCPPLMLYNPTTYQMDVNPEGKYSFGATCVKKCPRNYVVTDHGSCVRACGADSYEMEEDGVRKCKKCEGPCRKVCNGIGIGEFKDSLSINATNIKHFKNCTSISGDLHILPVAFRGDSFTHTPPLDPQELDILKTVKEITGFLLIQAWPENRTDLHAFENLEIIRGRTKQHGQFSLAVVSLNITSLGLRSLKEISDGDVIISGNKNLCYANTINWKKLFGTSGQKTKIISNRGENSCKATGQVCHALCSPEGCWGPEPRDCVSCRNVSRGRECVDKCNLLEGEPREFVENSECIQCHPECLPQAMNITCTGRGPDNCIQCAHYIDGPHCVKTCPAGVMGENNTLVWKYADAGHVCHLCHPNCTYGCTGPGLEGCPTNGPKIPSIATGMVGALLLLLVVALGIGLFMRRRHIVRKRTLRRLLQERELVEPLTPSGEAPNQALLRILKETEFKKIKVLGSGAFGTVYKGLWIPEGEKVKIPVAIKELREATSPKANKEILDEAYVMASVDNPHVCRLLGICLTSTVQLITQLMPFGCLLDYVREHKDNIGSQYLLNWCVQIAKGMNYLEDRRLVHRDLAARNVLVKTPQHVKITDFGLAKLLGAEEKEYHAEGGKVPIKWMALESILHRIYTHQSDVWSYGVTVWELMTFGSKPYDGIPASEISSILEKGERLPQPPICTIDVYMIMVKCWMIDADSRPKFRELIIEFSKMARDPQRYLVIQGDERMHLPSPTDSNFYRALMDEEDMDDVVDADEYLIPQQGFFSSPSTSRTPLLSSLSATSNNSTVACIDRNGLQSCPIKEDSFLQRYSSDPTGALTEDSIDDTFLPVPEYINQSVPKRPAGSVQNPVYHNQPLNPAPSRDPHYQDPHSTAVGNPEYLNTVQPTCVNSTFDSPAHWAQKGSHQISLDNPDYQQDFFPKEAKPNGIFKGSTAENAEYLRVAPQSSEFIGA

PKC-δ = PKC-δ (Homo sapiens, UniProt Q05655); conditions: reported in reference [74]; cited from earlier work
PKC-δ, sequence (Q05655 whole entry): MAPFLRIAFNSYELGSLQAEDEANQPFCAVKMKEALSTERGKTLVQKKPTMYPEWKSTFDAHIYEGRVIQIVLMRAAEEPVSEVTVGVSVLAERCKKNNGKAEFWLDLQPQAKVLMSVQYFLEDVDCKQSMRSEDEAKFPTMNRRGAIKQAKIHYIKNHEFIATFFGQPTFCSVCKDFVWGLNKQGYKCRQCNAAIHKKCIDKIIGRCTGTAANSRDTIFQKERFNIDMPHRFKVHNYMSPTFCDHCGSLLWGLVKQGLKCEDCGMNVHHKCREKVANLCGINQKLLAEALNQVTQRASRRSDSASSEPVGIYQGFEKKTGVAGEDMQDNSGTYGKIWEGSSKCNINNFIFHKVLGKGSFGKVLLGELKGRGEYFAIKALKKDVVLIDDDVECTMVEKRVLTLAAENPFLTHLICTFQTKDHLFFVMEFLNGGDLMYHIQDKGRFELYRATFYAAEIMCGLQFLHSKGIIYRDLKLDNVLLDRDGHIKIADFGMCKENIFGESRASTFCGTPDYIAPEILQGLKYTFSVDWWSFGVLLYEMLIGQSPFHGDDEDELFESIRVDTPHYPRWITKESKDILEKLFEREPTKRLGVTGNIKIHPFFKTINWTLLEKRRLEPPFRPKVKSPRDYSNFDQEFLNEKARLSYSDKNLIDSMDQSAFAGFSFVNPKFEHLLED

PKC-α = PKC-α (Homo sapiens, UniProt P17252); conditions: reported in reference [74]; cited from earlier work

IC50 (Flt-3) [µM] | IC50 (CDK7/cyclin H) [µM] | IC50 (aurora-B) [µM] | IC50 (CDK2/cyclin E) [µM] | Structure (SMILES) | IC50 (A2780) [µM] | IC50 (Mia-PaCa-2) [µM] | kinase inhibition EGF-R (EGF-R) | kinase inhibition PKC-δ (PKC-δ) | kinase inhibition PKC-α (PKC-α)
0.0788 | 6.04 | 1.41 |  | c1ccc(CN2CCN(c3ccc(Nc4nccc(-c5c[nH]c6ccccc56)n4)cc3)CC2)cc1 [Compound 8, 4-(1H-indol-3-yl)-N-(4-benzylpiperazin-1-ylphenyl)pyrimidin-2-amine] | 5.43 | 5.46 |  |  | 
0.726 |  |  | 0.332 | Cc1cc(N2CCOCC2)ccc1Nc1nccc(-c2c[nH]c3ccccc23)n1 [Compound 11, 4-(1H-indol-3-yl)-N-(2-methyl-4-morpholin-4-ylphenyl)pyrimidin-2-amine] | 4.66 | 6.82 |  |  | 
 |  |  |  | FC(F)C(F)(F)Oc1cccc(Nc2nccc(-c3c[nH]c4ccccc34)n2)c1 [[4-(1H-indol-3-yl)-pyrimidin-2-yl]-[3-(1,1,2,2-tetrafluoro-ethoxy)-phenyl]-amine] |  |  | shown to inhibit | shown to inhibit | shown to inhibit
